15 compounds from patent publication US9102671B2, “Compounds and compositions as TRK inhibitors” (Novartis AG, priority 2011, dated 2015) can be followed below.

Where only a bound is given, the exact number is not on record here.

In assay [1] the test system is parental (untransformed) Ba/F3 cells. In words: Ba/F3 cell proliferation, BAF3/WT (parental, IL3). The assay is classed as cell-based, murine. Conditions: Mus musculus, inhibition of proliferation of parental cells with IL3, 48 hours, Bright-Glo luminescence. As for the experimental part: (§1) Test compounds were dissolved in DMSO (10 mM) and transferred into 1.4 mL flat bottom or V-shaped Matrix tubes carrying a unique 2D matrix chip by individual compound hubs. The numbers of these chips were distinctively linked to the individual compound identification numbers. The stock solutions were stored at −20° C. if not used immediately. For the test procedure the vials were defrosted and identified by a scanner whereby a working sheet is generated that guides the subsequent working steps.
(§2) Compound dilutions were made in 384 well plates. This format enabled the assay of maximally 28 individual test compounds at 11 concentrations (single points) including 2 reference compounds. The dilution protocol included the production of pre-dilution plates, master plates and assay plates: • Compound plates: 30 μL of individual compound (10 mM) DMSO solution including reference compound were transferred into columns 1 and 13 of a 384 well plate. 20 μL of DMSO were added to the rest of the wells and the compounds were serially diluted (1:3) by transferring 10 μL from a well in column 1 or 13 to the next well in column 2 or 14 respectively and successively with the help of a Minitrack robot. • Assay plates: Identical assay plates were then prepared by adding 50 nL each of compound dilutions of the compound plates into 384-well “assay plates”. In the following the compounds were mixed with 50 μL of assays components (cells or enzyme) and tested for their inhibitory activity.
Compounds were tested for their ability to inhibit the proliferation of wt Ba/F3 cells and Ba/F3 cells transformed with constitutively expressed luciferase reporter and BCR-ABL or Tel-FMS or other Tel fusion kinases (EGFR, JAK2, ALK, BMX, FGFR3, FGFR4, FGR2, FLT1, FLT3, IGF1R, INSR, KDR, KIT, LCK, LYN, MEK, MET, PDGFRα, PDGFRβ, RET, RON, ROS, SRC, SYK, TIE and TYRO) or BRafV600E. Parental Ba/F3 cells were maintained in media containing recombinant mouse IL3 and the kinase transformed Ba/F3 cells were maintained in media without IL-3. 7.5 nl of compounds were spotted to each well of 1536-well assay plates by Liquid handling System Echo 555 (Labcyte). 700 cells were then plated into each well of the assay plates in 7 uL culture media per well and compounds were tested at 0.17 nM to 10 uM in 3-fold serial dilutions. The cells were then incubated for 48 hours at 37° C. 3 uL of Bright-Glo® (Promega) was added to each well and the plates were read using ViewLux (PerkinElmer).
The cell line used is the luciferase expressing Ba/F3 murine hematopoietic progenitor cell line transformed with human Tel-TrkA, Tel-TrkB or Tel-TrkC cDNAs (Ba/F3 EN A/B/C). These cells maintained in RPMI/10% fetal bovine serum (RPMI/FCS) supplemented with penicillin 50 mg/mL, streptomycin 50 mg/mL and L-glutamine 200 mM. Untransformed Ba/F3 cells were similarly maintained with the addition 5 ng/ml of murine recombinant IL3. 50 μl of a Ba/F3 or Ba/F3 EN A/B/C cell suspension were plated in Greiner 384 well microplates (white)) at a density of 2000 cells per well. 50 nl of serially diluted test compound (10-0.0001 mM in DMSO solution) is added to each well. The cells were incubated for 48 hours at 37° C., 5% CO2. 25 μl of Bright Glo® (Promega) luciferase substrate is added to each well. The emited luminiscence is quantified using ViewLux (PerkinElmer). IC50 values were calculated by linear regression analysis of the percentage inhibition of each compound at 11 concentrations. […]

The target in assay [2] is T1, Ba/F3 cells co-expressing full length rTrkA and mNGF (Rattus norvegicus, UniProt P35739).
T1 construct: co-expressing full length rTrkA and mNGF; expressed in transfected cells; host or cells: Ba/F3 murine hematopoietic progenitor cells
Nature of the assay: Ba/F3 cell proliferation, BaF3/TRKA-NGF. The assay is classed as cell-based. Conditions: inhibition of proliferation, 48 hours, Bright-Glo luminescence.

Assay [3] addresses T2, Ba/F3 cells transformed with human Tel-TrkA (Homo sapiens, UniProt P04629).
T2 construct: expressed in transfected cells; host or cells: luciferase expressing Ba/F3 murine hematopoietic progenitor cell line; the other entry of the earlier key: ETV6 (P41212, Transcription factor ETV6)
Nature of the assay: Ba/F3 cell proliferation, Ba/F3 Tel-TrkA. Particulars: inhibition of proliferation, 48 hours, Bright-Glo luminescence; read-out: Ba/F3Tel-TrkA. The assay is classed as cell-based. As for the experimental part:
as §1, §2
The cell line used is the luciferase expressing Ba/F3 murine hematopoietic progenitor cell line transformed with human Tel-TrkA, Tel-TrkB or Tel-TrkC cDNAs (Ba/F3 EN A/B/C). These cells maintained in RPMI/10% fetal bovine serum (RPMI/FCS) supplemented with penicillin 50 mg/mL, streptomycin 50 mg/mL and L-glutamine 200 mM. Untransformed Ba/F3 cells were similarly maintained with the addition 5 ng/ml of murine recombinant IL3. 50 μl of a Ba/F3 or Ba/F3 EN A/B/C cell suspension were plated in Greiner 384 well microplates (white)) at a density of 2000 cells per well. 50 nl of serially diluted test compound (10-0.0001 mM in DMSO solution) is added to each well. The cells were incubated for 48 hours at 37° C., 5% CO2. 25 μl of Bright Glo® (Promega) luciferase substrate is added to each well. The emited luminiscence is quantified using ViewLux (PerkinElmer). IC50 values were calculated by linear regression analysis of the percentage inhibition of each compound at 11 concentrations.
In certain examples compounds of Formula (I) have IC50 values from 0.1 nM 1 μM. In other examples, compounds of Formula (I) have IC50 values from 0.0001 μM to 0.8 μM. In other examples, compounds of Formula (I) have IC50 values from 0.0001 μM to 0.6 μM. In other examples, compounds of Formula (I) have IC50 values from 0.0001 μM to 0.4 μM. In other examples, compounds of Formula (I) have IC50 values from 0.0001 μM to 0.2 μM. In other examples, compounds of Formula (I) have IC50 values from 0.0001 μM to 0.1 μM. In other examples, compounds of Formula (I) have IC50 values from 0.0001 μM to 0.08 μM. In other examples, compounds of Formula (I) have IC50 values from 0.0001 μM to 0.06 μM. In other examples, compounds of Formula (I) have IC50 values from 0.0001 μM to 0.04 μM. In other examples, compounds of Formula (I) have IC50 values from 0.0001 μM to 0.02 μM. In other examples, compounds of Formula (I) have IC50 values from 0.0001 μM to 0.01 μM. In other examples, compounds of Formula (I) have IC50 values from 0.01 μM to 1 μM.

T2 sequence (P04629 510-796 limits assumed): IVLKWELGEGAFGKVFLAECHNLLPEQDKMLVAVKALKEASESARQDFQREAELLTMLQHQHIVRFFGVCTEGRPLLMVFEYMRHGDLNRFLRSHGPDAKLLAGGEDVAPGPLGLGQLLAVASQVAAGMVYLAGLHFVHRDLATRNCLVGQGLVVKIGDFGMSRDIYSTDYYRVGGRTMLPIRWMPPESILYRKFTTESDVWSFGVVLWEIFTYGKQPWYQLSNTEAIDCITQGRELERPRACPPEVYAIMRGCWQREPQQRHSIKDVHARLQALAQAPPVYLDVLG
T1 sequence (P35739 33-799): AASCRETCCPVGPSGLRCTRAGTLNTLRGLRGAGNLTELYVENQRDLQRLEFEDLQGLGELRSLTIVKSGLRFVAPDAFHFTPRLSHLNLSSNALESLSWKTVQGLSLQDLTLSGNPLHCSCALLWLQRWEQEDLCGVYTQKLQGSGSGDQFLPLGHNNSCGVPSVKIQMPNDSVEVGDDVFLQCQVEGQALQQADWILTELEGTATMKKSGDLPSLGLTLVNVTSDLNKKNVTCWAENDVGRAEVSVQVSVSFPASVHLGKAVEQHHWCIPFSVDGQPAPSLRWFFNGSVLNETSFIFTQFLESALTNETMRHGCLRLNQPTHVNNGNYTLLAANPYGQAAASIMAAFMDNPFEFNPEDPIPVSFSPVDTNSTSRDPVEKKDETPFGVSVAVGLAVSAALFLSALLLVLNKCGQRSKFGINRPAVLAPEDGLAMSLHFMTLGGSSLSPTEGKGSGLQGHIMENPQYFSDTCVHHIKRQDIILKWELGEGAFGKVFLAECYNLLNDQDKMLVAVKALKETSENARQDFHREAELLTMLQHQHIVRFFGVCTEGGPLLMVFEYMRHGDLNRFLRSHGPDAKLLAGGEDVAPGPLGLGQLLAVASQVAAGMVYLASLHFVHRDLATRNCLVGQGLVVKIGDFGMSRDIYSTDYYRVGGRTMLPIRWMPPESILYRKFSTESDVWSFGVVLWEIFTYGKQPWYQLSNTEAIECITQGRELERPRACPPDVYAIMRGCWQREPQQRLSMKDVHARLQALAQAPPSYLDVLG
T1 sequence (P01139 122-241 partner): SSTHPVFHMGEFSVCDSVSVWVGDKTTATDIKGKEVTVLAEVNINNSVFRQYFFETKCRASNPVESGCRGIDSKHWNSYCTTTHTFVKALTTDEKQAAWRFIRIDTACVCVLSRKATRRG

For `CCOC(=O)c1cnn2ccc(N3C[C@@H](F)C[C@@H]3c3cccc(F)c3)cc12` [Example X-1, ethyl 5-((2R,4S)-4-fluoro-2-(3-fluorophenyl)pyrrolidin-1-yl)pyrazolo[1,5-a]pyridine-3-carboxylate], the IC50 in assay [1] was 4.1 µM; in assay [2] it was 1 nM.

`CCOC(=O)c1cnn2ccc(N3CC(F)(F)C[C@@H]3c3cccc(F)c3)cc12` [Example X-2, (R)-ethyl 5-(4,4-difluoro-2-(3-fluorophenyl)pyrrolidin-1-yl)pyrazolo[1,5-a]pyridine-3-carboxylate]: the results for the IC50 in assay [3], in assay [1] and in assay [2] were 3 nM, more than 10 µM and 3 nM, respectively.

For `O=C(O)c1cnn2ccc(N3C[C@@H](F)C[C@@H]3c3cccc(F)c3)cc12` [Example X-3, 5-((2R,4S)-4-fluoro-2-(3-fluorophenyl)pyrrolidin-1-yl)pyrazolo[1,5-a]pyridine-3-carboxylic acid], the IC50 in assay [3] is 147 nM; in assay [1], more than 10 µM; in assay [2] it was 110 nM.

Take `O=C(O)c1cnn2ccc(N3CC(F)(F)C[C@@H]3c3cccc(F)c3)cc12` [Example X-4, (R)-5-(4,4-difluoro-2-(3-fluorophenyl)pyrrolidin-1-yl)pyrazolo[1,5-a]pyridine-3-carboxylic acid]: the IC50 is 1680 nM in assay [3], more than 10 µM in assay [1] and 666 nM in assay [2].

On to `NC(=O)c1cnn2ccc(N3C[C@@H](F)C[C@@H]3c3cccc(F)c3)cc12` [Example X-5, 5-((2R,4S)-4-fluoro-2-(3-fluorophenyl)pyrrolidin-1-yl)pyrazolo[1,5-a]pyridine-3-carboxamide], for which the IC50 was 6 nM in assay [3], more than 10 µM in assay [1] and 7 nM in assay [2].

For the compound `NC(=O)c1cnn2ccc(N3CC(F)(F)C[C@@H]3c3cccc(F)c3)cc12` [Example X-6, (R)-5-(4,4-difluoro-2-(3-fluorophenyl)pyrrolidin-1-yl)pyrazolo[1,5-a]pyridine-3-carboxamide], the IC50 in assay [3] was 24 nM; in assay [1] it was more than 10 µM; in assay [2], 16 nM.

Take `CCOC(=O)c1cnn2ccc(N3C[C@@H](F)C[C@@H]3c3cc(F)cc(C#N)c3)cc12` [Example X-7, ethyl 5-((2R,4S)-2-(3-cyano-5-fluorophenyl)-4-fluoropyrrolidin-1-yl)pyrazolo[1,5-a]pyridine-3-carboxylate]: the IC50 in assay [3] came to 1 nM; in assay [1] it was 4.49 µM; in assay [2], 2 nM.

In the case of `CCOC(=O)c1cnn2ccc(N3CC(F)(F)C[C@@H]3c3cc(F)cc(C#N)c3)cc12` [Example X-8, (R)-ethyl 5-(2-(3-cyano-5-fluorophenyl)-4,4-difluoropyrrolidin-1-yl)pyrazolo[1,5-a]pyridine-3-carboxylate], the IC50 in assay [3] was 17 nM; in assay [1] it was more than 10 µM; in assay [2], 19 nM.

With `NC(=O)c1cc(F)cc([C@H]2CC(F)(F)CN2c2ccn3ncc(C(N)=O)c3c2)c1` [Example X-9, (R)-5-(2-(3-carbamoyl-5-fluorophenyl)-4,4-difluoropyrrolidin-1-yl)pyrazolo[1,5-a]pyridine-3-carboxamide], the IC50 was 37 nM in assay [3], more than 10 µM in assay [1] and 48 nM in assay [2].

For `N#Cc1cc(F)cc([C@H]2CC(F)(F)CN2c2ccn3ncc(C(N)=O)c3c2)c1` [Example X-11, (R)-5-(2-(3-cyano-5-fluorophenyl)-4,4-difluoropyrrolidin-1-yl)pyrazolo[1,5-a]pyridine-3-carboxamide], the IC50 was 21 nM in assay [3], more than 10 µM in assay [1] and 24 nM in assay [2].

As for `NC(=O)c1cnn2ccc(N3CCCCC3c3cccc(F)c3)cc12` (centres unmarked) [Example X-12, 5-[2-(3-fluorophenyl)piperidin-1-yl]pyrazolo[1,5-a]pyridine-3-carboxamide], the IC50 in assay [3] was 225 nM; in assay [1] it was more than 10 µM; in assay [2] it was 97 nM.

As to `NC(=O)c1cnn2ccc(N3CCCC3c3ccccc3C(F)(F)F)cc12` (centres unmarked) [Example X-13, 5-{2-[2-(trifluoromethyl)phenyl]pyrrolidin-1-yl}pyrazolo[1,5-a]pyridine-3-carboxamide], the IC50 in assay [3] is 712 nM; in assay [1] it was more than 10 µM; in assay [2] it was 341 nM.

Take `CCNC(=O)c1cnn2ccc(N3C[C@@H](F)C[C@@H]3c3cccc(F)c3)cc12` [Example X-14, N-ethyl-5-[(2R,4S)-4-fluoro-2-(3-fluorophenyl)pyrrolidin-1-yl]pyrazolo[1,5-a]pyridine-3-carboxamide]: the IC50 in assay [3] was 6 nM; in assay [1], more than 10 µM; in assay [2], 8 nM.

Turning to `CN(C)C(=O)c1cnn2ccc(N3C[C@@H](F)C[C@@H]3c3cccc(F)c3)cc12` [Example X-15, 5-[(2R,4S)-4-fluoro-2-(3-fluorophenyl)pyrrolidin-1-yl]-N,N-dimethylpyrazolo[1,5-a]pyridine-3-carboxamide], the IC50 in assay [3] was 50 nM; in assay [1], more than 10 µM; in assay [2] it was 43 nM.

As for `CC(C)(C)NC(=O)c1cnn2ccc(N3C[C@@H](F)C[C@@H]3c3cccc(F)c3)cc12` [Example X-16, N-tert-butyl-5-[(2R,4S)-4-fluoro-2-(3-fluorophenyl)pyrrolidin-1-yl]pyrazolo[1,5-a]pyridine-3-carboxamide], the IC50 in assay [3] was 5 nM; in assay [1], more than 10 µM; in assay [2], 6 nM.
